Reference: patent publication US20230119013A1, “N-CYANOPYRROLIDINES WITH ACTIVITY AS USP30 INHIBITORS” (MISSION THERAPEUTICS LIMITED, priority 2020, published 2023)
Read-outs that look alike come from different tables or passages of the source.

Columns and labels:
Cathepsin B = Cathepsin B (Homo sapiens, UniProt P07858); assay: Cathepsin IC50, Cathepsin B; assay type: biochemical
hepatocyte [1] = assay: Hepatocyte clearance human; assay type: in vitro ADME; conditions: human hepatocytes
Text: (§1) log P: partition coefficient; lipophilicity measurement. log D: distribution co-efficient; lipophilicity measurement. TPSA: topological polar surface area. Turbidimetric solubility: Test compound solution prepared in DMSO diluted into aqueous buffer. Turbidimetry is used as the end-point by measuring absorbance at 620 nm. FaSSIF: simulated intestinal fluid in fasted state measured at pH 6.5. Hep Cl mouse: in vitro hepatocyte clearance in mouse cells. Hep Cl human: in vitro hepatocyte clearance in human cells. Plasma fu,p: The free fraction of a compound in plasma preparation determined by in vitro equilibrium dialysis. It is understood that only unbound (free) compound is capable of engaging with the target. Brain fu,br: The free fraction of a compound in brain homogenate preparation determined by in vitro equilibrium dialysis. It is understood that only unbound (free) compound is capable of engaging with the target. Clu: in vitro clearance. Clu as defined here is the scaled clearance, in turn calculated from the intrinsic clearance. The intrinsic clearance is the predicted clearance due to hepatic metabolic reactions, determined from incubation of a compound in a hepatocyte preparation. […] Cl in vivo clearance: Pharmacokinetic measurement of the volume of plasma (or any matrix) from which a substance is completely removed per unit time.

hERG potassium channel = biological target: T1, hERG potassium channel (Homo sapiens, UniProt Q12809); assay: hERG potassium channel in stably expressed CHO cells; assay type: cell-based; conditions: for IC50: 0.01 to 30 μM, n=3; for inhibition at 30 µM: human, CHO cells stably expressing hERG, read-out: inhibition of the hERG current amplitude
T1 construct: expressed in transfected cells
Description: The hERG predictor assay provides valuable information about the possible binding of test compounds to the potassium channel and potential QT prolongation on […]. Inhibition of the hERG current causes QT interval prolongation resulting in potentially fatal ventricular tachyarrhythmia (Torsades de Pointes). Typically, assay data may be generated from an automated patch-clamp assay platform.
Example 1 was evaluated for effects on the hERG potassium channel, in stably expressed CHO cells at concentrations between 0.01 and 30 μM.
Example 2 was evaluated for effects on the hERG potassium channel, in stably expressed CHO cells at concentrations between 0.01 and 30 μM.

[2] = test system: Salmonella typhimurium strains TA98, TA100, TA1535 and TA97a and the Escherichia Coli strain WP2 uvrA pKM101; assay: Bacterial reverse mutation assay (Ames); assay type: cell-based; conditions: up to 1000 μg/well (5000 μg/plate), with and without metabolic activation
Description: The bacterial reverse mutation assay (Ames Test) may be used to evaluate the mutagenic properties of compounds of the invention, commonly by using the bacterial strain Salmonella typhimurium, which is mutant for the biosynthesis of the amino acid histidine.
Example 1 was assessed in the bacterial reverse mutation assay (Ames) and in vitro micronucleus assay. All in vitro tests were conducted with and without exogenous metabolic activation using concentrations up to those limited by cytotoxicity or insolubility.
Example 2 was assessed in the bacterial reverse mutation assay (Ames). All in vitro tests were conducted with and without exogenous metabolic activation using concentrations up to those limited by cytotoxicity or insolubility.

Log D measurement = assay type: physicochemical; conditions: pH 7.4; read-out: Log D measured at pH 7.4
Text: as §1

Cathepsin S = Cathepsin S (Homo sapiens, UniProt P25774); assay: Cathepsin IC50, Cathepsin S; assay type: biochemical
USP30 = biological target: T2, USP30 (Homo sapiens, UniProt Q70CQ3); assay: USP30 biochemical IC50 assay (fluorescence polarisation); conditions: for fold more potent against USP30 than Reference Example A / fold more potent against USP30 than Reference Example B / fold more potent against USP30 than Reference Example C / fold more potent against USP30 than Reference Example D: biochemical assay; for IC50: read-out: USP30 IC50
T2 construct: purchased Boston Biochem E582
T2 sequence (Q70CQ3 57-517 limits assumed): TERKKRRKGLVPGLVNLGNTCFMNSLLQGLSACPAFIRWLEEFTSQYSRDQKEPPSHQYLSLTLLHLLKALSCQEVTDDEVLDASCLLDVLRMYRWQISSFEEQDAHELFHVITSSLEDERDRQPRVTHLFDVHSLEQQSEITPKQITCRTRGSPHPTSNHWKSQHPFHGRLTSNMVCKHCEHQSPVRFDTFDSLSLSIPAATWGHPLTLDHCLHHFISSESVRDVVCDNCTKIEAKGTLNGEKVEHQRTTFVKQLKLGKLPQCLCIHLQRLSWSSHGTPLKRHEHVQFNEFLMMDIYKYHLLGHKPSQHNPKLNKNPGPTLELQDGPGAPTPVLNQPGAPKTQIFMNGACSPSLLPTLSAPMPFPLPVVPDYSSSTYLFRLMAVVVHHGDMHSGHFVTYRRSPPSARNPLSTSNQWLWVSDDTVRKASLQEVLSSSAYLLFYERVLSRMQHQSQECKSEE
Description: Dilution plates were prepared at 21 times the final concentration (2100 μM for a final concentration of 100 μM) in 50% DMSO in a 96-well polypropylene V-bottom plate (Greiner #651201). A typical 8-point dilution series would be 100, 30, 10, 3, 1, 0.3, 0.1, 0.03 μM final. Reactions were performed in duplicate in black 384 well plates (small volume, Greiner 784076) in a final reaction volume of 21 μl. Either 1 μl of 50% DMSO or diluted compound was added to the plate. USP30 (Boston Biochem #E582) was diluted in reaction buffer (40 mM Tris, pH 7.5, 0.005% Tween 20, 0.5 mg/ml BSA, 5 mM beta-mercaptoethanol) to achieve a final assay concentration of 4 nM, and 10 μl of diluted USP30 was added to the compound. Enzyme and compound were incubated for 30 min at room temp. Reactions were initiated by the addition of 50 nM of TAMRA labelled peptide linked to ubiquitin via an iso-peptide bond as fluorescence polarisation substrate. Reactions were read immediately after addition of substrate and following a 2-hour incubation at room temperature. Readings were performed on a Pherastar Plus (BMG Labtech). λ Excitation 540 nm; Emission 590 nm.

hepatocyte [3] = assay: Hepatocyte clearance mouse; assay type: in vitro ADME; conditions: mouse hepatocytes
Text: as §1

PK mouse = assay type: in vivo; conditions: for Unbound plasma Cmax/TOM20-Ub cell potency: 10 mg/kg PO dose - mouse; for bioavailability: po, 10 mg/kg, read-out: PK mouse Oral F (%); for bioavailability / clearance: mouse
Text: as §1
MDR1-MDCK (Madin-Darby Canine Kidney cell monolayer) (in vitro) flux assay. Cell TE WB: USP30 endogenous cellular target engagement western blot (WB) assay. Assays the activity of compounds against USP30 in cells using an irreversible activity probe to monitor USP30 activity. TE ex vivo: USP30 kidney tissue target engagement assay. Kp u,u is the ratio of unbound drug in brain to unbound drug in plasma and may be indicative of potential for treating peripheral and/or CNS indications.

[4] = whole blood, 2 mg/kg iv, read-out: PK mouse Cl blood

T1 sequence (Q12809 whole entry): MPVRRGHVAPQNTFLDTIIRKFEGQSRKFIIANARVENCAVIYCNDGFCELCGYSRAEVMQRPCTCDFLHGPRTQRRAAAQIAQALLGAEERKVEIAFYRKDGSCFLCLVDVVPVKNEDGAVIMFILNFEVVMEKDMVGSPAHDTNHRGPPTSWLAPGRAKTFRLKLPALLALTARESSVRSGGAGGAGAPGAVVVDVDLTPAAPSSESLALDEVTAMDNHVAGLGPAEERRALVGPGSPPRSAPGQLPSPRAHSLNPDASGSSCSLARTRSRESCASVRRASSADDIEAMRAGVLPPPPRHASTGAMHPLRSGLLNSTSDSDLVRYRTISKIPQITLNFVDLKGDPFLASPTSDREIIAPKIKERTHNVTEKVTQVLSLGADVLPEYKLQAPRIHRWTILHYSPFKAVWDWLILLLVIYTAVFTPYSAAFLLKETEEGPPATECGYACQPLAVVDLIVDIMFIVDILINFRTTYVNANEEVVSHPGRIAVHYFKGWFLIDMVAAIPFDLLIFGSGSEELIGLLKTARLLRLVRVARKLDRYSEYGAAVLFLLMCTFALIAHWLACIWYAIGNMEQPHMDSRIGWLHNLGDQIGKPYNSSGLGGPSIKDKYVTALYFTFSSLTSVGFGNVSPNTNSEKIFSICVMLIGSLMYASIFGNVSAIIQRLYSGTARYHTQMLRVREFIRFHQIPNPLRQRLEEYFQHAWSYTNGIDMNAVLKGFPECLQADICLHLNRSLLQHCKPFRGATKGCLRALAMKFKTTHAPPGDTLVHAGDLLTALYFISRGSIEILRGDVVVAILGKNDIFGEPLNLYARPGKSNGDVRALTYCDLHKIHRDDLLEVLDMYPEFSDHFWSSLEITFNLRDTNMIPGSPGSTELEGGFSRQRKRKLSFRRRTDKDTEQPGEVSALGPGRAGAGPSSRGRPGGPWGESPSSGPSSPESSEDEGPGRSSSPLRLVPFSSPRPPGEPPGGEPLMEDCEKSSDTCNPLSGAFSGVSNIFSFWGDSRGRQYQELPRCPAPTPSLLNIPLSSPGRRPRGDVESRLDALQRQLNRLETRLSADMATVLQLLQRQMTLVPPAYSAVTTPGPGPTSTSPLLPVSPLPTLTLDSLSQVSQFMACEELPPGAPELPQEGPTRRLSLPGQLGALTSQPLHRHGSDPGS
Chain of Cathepsin S (P25774 115-331, species assumed): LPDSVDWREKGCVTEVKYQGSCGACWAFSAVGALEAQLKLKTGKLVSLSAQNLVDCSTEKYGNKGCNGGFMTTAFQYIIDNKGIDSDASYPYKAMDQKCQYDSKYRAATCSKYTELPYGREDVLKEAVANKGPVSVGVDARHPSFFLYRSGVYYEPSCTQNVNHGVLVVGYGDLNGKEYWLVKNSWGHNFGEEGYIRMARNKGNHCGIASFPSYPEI

SMILES | IC50 (Cathepsin B) | Hepatocyte Cl human scaled Clu (hepatocyte [1]) | IC50 (hERG potassium channel) | inhibition at 30 µM (hERG potassium channel) | induction of mutations, reverse mutation assay ([2]; TA98, TA100, TA1535, TA97a and E. coli WP2 uvrA pKM101) | logD (Log D measurement) | IC50 (Cathepsin S) | fold more potent against USP30 than Reference Example A (USP30) | fold more potent against USP30 than Reference Example B (USP30) | fold more potent against USP30 than Reference Example C (USP30) | fold more potent against USP30 than Reference Example D (USP30) | IC50 (USP30) | Hepatocyte Cl mouse scaled Clu (hepatocyte [3]) | Kp uu (PK mouse; 2 mg/kg IV dose - mouse, unbound brain to unbound plasma) | Unbound plasma Cmax/TOM20-Ub cell potency (PK mouse) | bioavailability (PK mouse; plasma) | clearance (PK mouse; plasma, IV, read-out: IV plasma clearance) | clearance (PK mouse; [4]) | induction of mutations, reverse mutation assay ([2]; TA98 and TA100) | bioavailability (PK mouse; in vivo)
COC[C@@H]1C[C@@H](NC(=O)c2ncc(-c3cccc(OC(F)(F)F)c3)o2)CN1C#N [Example 1, N-((3R,5S)-1-Cyano-5-(methoxymethyl)pyrrolidin-3-yl)-5-(3-(trifluoromethoxy)phenyl)oxazole-2-carboxamide] | 44.3 µM | 5.6 mL/min/kg | 34.3 µM | 44.3% | did not induce mutations | 2.9 | 158 µM | 14 fold | 34 fold | 62 fold | 880 fold | 0.005 µM | 84.7 mL/min/kg | 0.21 | 25-fold | 59% | 20 mL/min/kg | 20 mL/min/kg |  | 
C[C@@H]1C[C@@H](NC(=O)c2ncc(-c3cccc(OC(F)(F)F)c3)o2)CN1C#N [Example 2, N-((3R,5R)-1-Cyano-5-methylpyrrolidin-3-yl)-5-(3-(trifluoromethoxy)phenyl)oxazole-2-carboxamide] | > 30 µM | 11.2 mL/min/kg | 24.7 µM | 54.3% |  | 3.4 | > 30 µM | 14 fold | 34 fold | 62 fold | 880 fold | 0.005 µM | 130.6 mL/min/kg |  | 7-fold |  |  | 58 mL/min/kg | did not induce mutations | 36%
